For test [1], the target named is T1, complement C5a receptor 1 (C5aR1) (Homo sapiens, UniProt P21730).
T1 construct: β-galactosidase fragment (PathHunter enzyme complementation); host or cells: CHO-K1 (PathHunter CHO-K1 C5aR1 β-arrestin cell line)
T1 sequence (P21730 1-350): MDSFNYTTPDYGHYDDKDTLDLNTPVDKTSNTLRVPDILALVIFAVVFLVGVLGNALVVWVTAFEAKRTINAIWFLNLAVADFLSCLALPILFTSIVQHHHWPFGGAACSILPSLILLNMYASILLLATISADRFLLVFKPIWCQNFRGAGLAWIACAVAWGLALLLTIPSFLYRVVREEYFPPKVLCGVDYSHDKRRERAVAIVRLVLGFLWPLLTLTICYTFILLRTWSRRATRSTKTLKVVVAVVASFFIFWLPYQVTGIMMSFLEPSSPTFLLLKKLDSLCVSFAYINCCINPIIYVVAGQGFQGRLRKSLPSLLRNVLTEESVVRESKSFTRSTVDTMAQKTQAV
Description: β-arrestin recruitment via C5aR1 activation in live CHO-K1 cells (PathHunter), agonist mode. It counts as cell-based. A digest of the protocol:
(§1)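 Live CHO-K1 cells carry two galactosidase enzyme fragments, one fused to β-arrestin and one to C5aR1, so that β-arrestin recruitment restores enzyme activity. Agonist mode tests compounds alone. Antagonist mode tests them against recombinant hC5a at EC90, and IC50 values are reported in binned ranges.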
A general note: Recruitment of arrestin is a read-out of receptor activation apart from second messengers.

The target of test [2] is T1, complement C5a receptor 1 (C5aR1). The test can be described thus: β-arrestin recruitment via C5aR1 activation in live CHO-K1 cells (PathHunter), antagonist mode. It counts as cell-based. The note with it: antagonist mode; recombinant hC5a (EC90) as competing natural agonist; live CHO-K1 cells; read-out: [Antagonist] B-arrestin2 recruitment: Average IC50. A digest of the protocol: as §1

We go through 22 molecules from patent US20260317320A1, “C5AR1 ANTAGONISTS AND USES THEREOF” (Vanqua Bio, Inc., priority 2022, published 2026).

Like-named read-outs stand apart in the source and are kept apart here.

The term IC50 denotes the point on the concentration scale where inhibition reaches its midpoint. For `Cc1cccc(F)c1N1CCC(c2nc3ccccc3n(Cc3ncccc3C(F)(F)F)c2=O)CC1` [compound 139, 3-(1-(2-Fluoro-6-methylphenyl)piperidin-4-yl)-1-((3-(trifluoromethyl)pyridin-2-yl)methyl)quinoxalin-2(1H)-one], the “[Agonist] B-arrestin2 recruitment: Average EC50 (nM)” value (from here on “[Agonist] B-arrestin2 recruitment”) in test [1] (at 10 μM) is on record as “Non-Active at 10 μM”. For the same molecule, the IC50 in test [2] was > 100000 nM.
In the same order, the values of `Cc1cnc2cc(N3CCN(c4c(C)cccc4F)CC3)c(=O)n(Cc3ncccc3C(F)F)c2n1` [compound 140, 5-((3-(Difluoromethyl)pyridin-2-yl)methyl)-7-(4-(2-fluoro-6-methylphenyl)piperazin-1-yl)-3-methylpyrido[2,3-b]pyrazin-6(5H)-one] are “Non-Active at 10 μM” and < 500 nM.
In the case of `Cc1cnc2cc(C3CCN(c4c(C)ccnc4F)CC3)c(=O)n(Cc3ncccc3C(F)F)c2n1` [compound 141, 5-((3-(Difluoromethyl)pyridin-2-yl)methyl)-7-(1-(2-fluoro-4-methylpyridin-3-yl)piperidin-4-yl)-3-methylpyrido[2,3-b]pyrazin-6(5H)-one], the “[Agonist] B-arrestin2 recruitment” value in test [1] is given as “Non-Active”. For the same molecule, the IC50 in test [2] was < 500 nM.
For `Cc1cnc2cc(C3CCN(c4cnsc4C)CC3)c(=O)n(Cc3ncccc3C(F)(F)F)c2n1` [compound 145, 3-Methyl-7-(1-(5-methylisothiazol-4-yl)piperidin-4-yl)-5-((3-(trifluoromethyl)pyridin-2-yl)methyl)pyrido[2,3-b]pyrazin-6(5H)-one], the “[Agonist] B-arrestin2 recruitment” value in test [1] was “Non-Active”. Further, in test [2], the IC50 was < 500 nM.
For `Cc1cnc2cc(C3CCN(c4nccnc4C)CC3)c(=O)n(Cc3ncccc3C(F)(F)F)c2n1` [compound 151, 3-Methyl-7-(1-(3-methylpyrazin-2-yl)piperidin-4-yl)-5-((3-(trifluoromethyl)pyridin-2-yl)methyl)pyrido[2,3-b]pyrazin-6(5H)-one], the “[Agonist] B-arrestin2 recruitment” value in test [1] (at 10 μM) was “Non-Active at 10 μM”. For the same molecule, the IC50 in test [2] lay within 500 to 5000 nM.
For the molecule `Cc1cnc2cc([C@H]3CC[C@H](c4c(C)cccc4F)CC3)c(=O)n(Cc3ncccc3OC(F)(F)F)c2n1` [compound 152, 7-((1r,4r)-4-(2-Fluoro-6-methylphenyl)cyclohexyl)-3-methyl-5-((3-(trifluoromethoxy)pyridin-2-yl)methyl)pyrido[2,3-b]pyrazin-6(5H)-one], the “[Agonist] B-arrestin2 recruitment” value in test [1] is “Non-Active”. The IC50 in test [2] was < 500 nM.
For `Cc1cnc2cc(C3CCN(c4nccnc4C)CC3)c(=O)n(Cc3ncccc3OC(F)(F)F)c2n1` [compound 153, 3-Methyl-7-(1-(3-methylpyrazin-2-yl)piperidin-4-yl)-5-((3-(trifluoromethoxy)pyridin-2-yl)methyl)pyrido[2,3-b]pyrazin-6(5H)-one], the “[Agonist] B-arrestin2 recruitment” value in test [1] (at 10 μM) is “Non-Active at 10 μM”. Besides, the IC50 in test [2] lay in the range of 500 to 5000 nM.
As to `Cc1cnc2cc(C3CCN(c4ncccc4C(F)F)CC3)c(=O)n(Cc3ncccc3C(F)(F)F)c2n1` [compound 154, 7-(1-(3-(Difluoromethyl)pyridin-2-yl)piperidin-4-yl)-3-methyl-5-((3-(trifluoromethyl)pyridin-2-yl)methyl)pyrido[2,3-b]pyrazin-6(5H)-one], the “[Agonist] B-arrestin2 recruitment” value in test [1] (at 10 μM) is given as “Non-Active at 10 μM”. The IC50 in test [2] is < 500 nM.
In the same order, the values of `Cc1cccc(F)c1N1CCC(c2cc3nccnc3n(Cc3nccnc3OC(F)F)c2=O)CC1` [compound 155, 5-((3-(Difluoromethoxy)pyrazin-2-yl)methyl)-7-(1-(2-fluoro-6-methylphenyl)piperidin-4-yl)pyrido[2,3-b]pyrazin-6(5H)-one] are “Non-Active at 10 μM” and < 500 nM.
With `Cc1cnc2cc(C3CCN(c4nccnc4C(F)(F)F)CC3)c(=O)n(Cc3ncccc3C(F)(F)F)c2n1` [compound 156, 3-Methyl-7-(1-(3-(trifluoromethyl)pyrazin-2-yl)piperidin-4-yl)-5-((3-(trifluoromethyl)pyridin-2-yl)methyl)pyrido[2,3-b]pyrazin-6(5H)-one], the “[Agonist] B-arrestin2 recruitment” value in test [1] (at 10 μM) is on record as “Non-Active at 10 μM”. For the same molecule, the IC50 in test [2] was in the range of 500 to 5000 nM.
For `Cc1cnc2cc(C3CCN(c4cccnc4C(F)(F)F)CC3)c(=O)n(Cc3ncccc3C(F)(F)F)c2n1` [compound 157, 3-Methyl-5-((3-(trifluoromethyl)pyridin-2-yl)methyl)-7-(1-(2-(trifluoromethyl)pyridin-3-yl)piperidin-4-yl)pyrido[2,3-b]pyrazin-6(5H)-one], the “[Agonist] B-arrestin2 recruitment” value in test [1] (at 10 μM) was “Non-Active at 10 μM”. In test [2], the IC50 fell in the range of 500 to 5000 nM.
`Cc1cnc2cc([C@H]3CC[C@H](c4nccs4)CC3)c(=O)n(Cc3ncccc3C(F)(F)F)c2n1` [compound 158, 3-Methyl-7-((1r,4r)-4-(thiazol-2-yl)cyclohexyl)-5-((3-(trifluoromethyl)pyridin-2-yl)methyl)pyrido[2,3-b]pyrazin-6(5H)-one]: the “[Agonist] B-arrestin2 recruitment” value in test [1] (at 10 μM) is “Non-Active at 10 μM”. In addition, the IC50 in test [2] is 500 to 5000 nM.
In the case of `Cc1cccc(F)c1N1CCC(c2cc3nccnc3n(Cc3nccn(C(F)F)c3=O)c2=O)CC1` [compound 159, 5-((4-(Difluoromethyl)-3-oxo-3,4-dihydropyrazin-2-yl)methyl)-7-(1-(2-fluoro-6-methylphenyl)piperidin-4-yl)pyrido[2,3-b]pyrazin-6(5H)-one], the “[Agonist] B-arrestin2 recruitment” value in test [1] (at 10 μM) is on record as “Non-Active at 10 μM”. Also, in test [2], the IC50 was in the range of 5000 to 100000 nM.
Regarding `Cc1cnc2cc(C3CCN(c4cnccc4C(F)F)CC3)c(=O)n(Cc3ncccc3C(F)(F)F)c2n1` [compound 162, 7-(1-(4-(Difluoromethyl)pyridin-3-yl)piperidin-4-yl)-3-methyl-5-((3-(trifluoromethyl)pyridin-2-yl)methyl)pyrido[2,3-b]pyrazin-6(5H)-one], in test [1], the “[Agonist] B-arrestin2 recruitment” value was “Non-Active”. Besides, the IC50 in test [2] is < 500 nM.
On to `Cc1cnc2cc([C@H]3CC[C@H](c4ncsc4C)CC3)c(=O)n(Cc3ncccc3C(F)(F)F)c2n1` [compound 163, 3-Methyl-7-((1r,4r)-4-(5-methylthiazol-4-yl)cyclohexyl)-5-((3-(trifluoromethyl)pyridin-2-yl)methyl)pyrido[2,3-b]pyrazin-6(5H)-one], for which the “[Agonist] B-arrestin2 recruitment” value in test [1] (at 10 μM) was “Non-Active at 10 μM”. Moreover, the IC50 in test [2] was 500 to 5000 nM.
In the same order, the values of `Cc1cnc2cc([C@H]3CC[C@H](c4scnc4C)CC3)c(=O)n(Cc3ncccc3C(F)(F)F)c2n1` [compound 164, 3-Methyl-7-((1r,4r)-4-(4-methylthiazol-5-yl)cyclohexyl)-5-((3-(trifluoromethyl)pyridin-2-yl)methyl)pyrido[2,3-b]pyrazin-6(5H)-one] are “Non-Active at 10 μM” and 500 to 5000 nM.
For `Cc1cnc2cc(C3CCN(c4nnccc4C(F)(F)F)CC3)c(=O)n(Cc3ncccc3C(F)(F)F)c2n1` [compound 165, 3-Methyl-7-(1-(4-(trifluoromethyl)pyridazin-3-yl)piperidin-4-yl)-5-((3-(trifluoromethyl)pyridin-2-yl)methyl)pyrido[2,3-b]pyrazin-6(5H)-one], the “[Agonist] B-arrestin2 recruitment” value in test [1] (at 10 μM) was “Non-Active at 10 μM”. The IC50 in test [2] is < 500 nM.
Turning to `Cc1cnc2cc([C@H]3CC[C@H](c4ncsc4C)CC3)c(=O)n(Cc3ncccc3OC(F)(F)F)c2n1` [compound 166, 3-Methyl-7-((1r,4r)-4-(5-methylthiazol-4-yl)cyclohexyl)-5-((3-(trifluoromethoxy)pyridin-2-yl)methyl)pyrido[2,3-b]pyrazin-6(5H)-one], in test [1] (at 10 μM), the “[Agonist] B-arrestin2 recruitment” value was “Non-Active at 10 μM”. Further, in test [2], the IC50 was < 500 nM.
As for `Cc1cnc2cc(C3CCN(c4c(C)cccc4F)CC3)c(=O)n(Cc3nccnc3OC(F)F)c2n1` [compound 167, 5-((3-(Difluoromethoxy)pyrazin-2-yl)methyl)-7-(1-(2-fluoro-6-methylphenyl)piperidin-4-yl)-3-methylpyrido[2,3-b]pyrazin-6(5H)-one], the “[Agonist] B-arrestin2 recruitment” value in test [1] (at 10 μM) was “Non-Active at 10 μM”. In addition, the IC50 in test [2] was < 500 nM.
For `CCOc1nccnc1Cn1c(=O)c([C@H]2CC[C@H](c3c(C)cccc3F)CC2)cc2ncc(C)nc21` [compound 169, 5-((3-Ethoxypyrazin-2-yl)methyl)-7-((1r,4r)-4-(2-fluoro-6-methylphenyl)cyclohexyl)-3-methylpyrido[2,3-b]pyrazin-6(5H)-one], in that order: “Non-Active at 10 μM” and < 500 nM.
With `FC(F)(F)c1cccnc1CN1CC(C2CCN(c3ncccc3Cl)CC2)=Cc2nccnc21` [compound 170, 7-(1-(3-Chloropyridin-2-yl)piperidin-4-yl)-5-((3-(trifluoromethyl)pyridin-2-yl)methyl)-5,6-dihydropyrido[2,3-b]pyrazine], in test [1] (at 10 μM), the “[Agonist] B-arrestin2 recruitment” value is on record as “Non-Active at 10 μM”. Also, the IC50 in test [2] was < 500 nM.
With `COc1nccnc1Cn1c(=O)c([C@H]2CC[C@H](c3c(C)cccc3F)CC2)cc2ncc(C)nc21` [compound 173, 7-((1r,4r)-4-(2-Fluoro-6-methylphenyl)cyclohexyl)-5-((3-methoxypyrazin-2-yl)methyl)-3-methylpyrido[2,3-b]pyrazin-6(5H)-one], the “[Agonist] B-arrestin2 recruitment” value in test [1] (at 10 μM) is on record as “Non-Active at 10 μM”. For the same molecule, in test [2], the IC50 was < 500 nM.
